# Source: the supplement of paper PMC12513837
# ± gives the standard deviation of the averaged measurements.
# Compound: CC(=O)N1CCc2c(c(N3CCCc4cc(-c5cnn(C)c5)c(C(F)F)cc43)nn2C2CCC(CN3CCN(c4ccc5c(c4)C(=O)N(C4CCC(=O)NC4=O)C5=O)CC3)CC2)C1 [CBPD-409]
# Assay: AUC of viability dose-response curve (relative to vehicle, 8 doses up to 10 µM) (fraction); higher = less sensitive (more viable); extreme values may be limits of the assay
# Experimental: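 PRISM multiplexed pooled barcoded cell line viability screen at the Broad Institute, 887 cancer cell lines treated with CBPD-409 (p300/CBP PROTAC degrader) at 8 concentrations in threefold dilution, top dose 10 µM. The read-out is the area under the dose-response curve of relative viability versus vehicle (n=3). AUC < 0.3 is called strongly sensitive and AUC > 0.8 resistant.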
row,Test System,AUC of viability dose-response curve
1,8MGBA_CENTRAL_NERVOUS_SYSTEM,0.79
2,22RV1_PROSTATE,0.189
3,42MGBA_CENTRAL_NERVOUS_SYSTEM,0.485
4,93T449_SOFT_TISSUE,1
5,94T778_SOFT_TISSUE,0.951
6,95T1000_SOFT_TISSUE,0.44
7,143B_BONE,1
8,253JBV_URINARY_TRACT,1
9,253J_URINARY_TRACT,1
10,639V_URINARY_TRACT,0.515
11,647V_URINARY_TRACT,0.394
12,697_HAEMATOPOIETIC_AND_LYMPHOID_TISSUE,0.293
13,769P_KIDNEY,0.395
14,786O_KIDNEY,0.84
15,921_UVEA,0.336
16,1618K_TESTIS,0.518
17,1777NRPMET_TESTIS,0.655
18,5637_URINARY_TRACT,1
19,8305C_THYROID,0.823
20,8505C_THYROID,0.943
21,9505BIK_PANCREAS,1
22,2313287_STOMACH,0.631
23,A3KAW_HAEMATOPOIETIC_AND_LYMPHOID_TISSUE,0.325
24,A101D_SKIN,1
25,A172_CENTRAL_NERVOUS_SYSTEM,0.797

row,Test System,AUC of viability dose-response curve
1,A253_SALIVARY_GLAND,0.883
2,A375_SKIN,0.47
3,A388_SKIN,0.978
4,A427_LUNG,0.884
5,A498_KIDNEY,0.943
6,A549_LUNG,1
7,A673_BONE,1
8,A704_KIDNEY,0.942
9,A1207_CENTRAL_NERVOUS_SYSTEM,1
10,A2058_SKIN,1
11,A2780_OVARY,0.625
12,ABC1_LUNG,0.977
13,ACCMESO1_PLEURA,1
14,ACHN_KIDNEY,0.807
15,AGS_STOMACH,0.812
16,ALLSIL_HAEMATOPOIETIC_AND_LYMPHOID_TISSUE,0.917
17,AM38_CENTRAL_NERVOUS_SYSTEM,1
18,AMO1_HAEMATOPOIETIC_AND_LYMPHOID_TISSUE,0.46
19,AN3CA_ENDOMETRIUM,0.693
20,ANGMCSS_CENTRAL_NERVOUS_SYSTEM,1
21,ASPC1_PANCREAS,0.845
22,AU565_BREAST,1
23,BC3C_URINARY_TRACT,1
24,BCPAP_THYROID,0.885
25,BDCM_HAEMATOPOIETIC_AND_LYMPHOID_TISSUE,0.431

row,Test System,AUC of viability dose-response curve
1,BECKER_CENTRAL_NERVOUS_SYSTEM,0.88
2,BEN_LUNG,0.562
3,BFTC905_URINARY_TRACT,0.443
4,BFTC909_KIDNEY,1
5,BHT101_THYROID,0.581
6,BHY_UPPER_AERODIGESTIVE_TRACT,0.851
7,BICR6_UPPER_AERODIGESTIVE_TRACT,0.907
8,BICR16_UPPER_AERODIGESTIVE_TRACT,0.181
9,BICR18_UPPER_AERODIGESTIVE_TRACT,1
10,BICR22_UPPER_AERODIGESTIVE_TRACT,0.901
11,BICR31_UPPER_AERODIGESTIVE_TRACT,0.695
12,BICR56_UPPER_AERODIGESTIVE_TRACT,0.862
13,BICR78_UPPER_AERODIGESTIVE_TRACT,0.547
14,BL2_HAEMATOPOIETIC_AND_LYMPHOID_TISSUE,0.77
15,BLUE1_HAEMATOPOIETIC_AND_LYMPHOID_TISSUE,0.311
16,BOKU_CERVIX,0.581
17,BT12_SOFT_TISSUE,0.706
18,BT16_SOFT_TISSUE,1
19,BT474_BREAST,0.643
20,BT549_BREAST,1
21,BV173_HAEMATOPOIETIC_AND_LYMPHOID_TISSUE,0.271
22,C4I_CERVIX,0.999
23,C32_SKIN,0.562
24,C33A_CERVIX,1
25,C75_LARGE_INTESTINE,1

row,Test System,AUC of viability dose-response curve
1,C80_LARGE_INTESTINE,0.689
2,C8166_HAEMATOPOIETIC_AND_LYMPHOID_TISSUE,0.546
3,CADOES1_BONE,0.458 ± 0.12
4,CAKI1_KIDNEY,0.644
5,CAL12T_LUNG,0.645
6,CAL27_UPPER_AERODIGESTIVE_TRACT,0.961
7,CAL29_URINARY_TRACT,0.7
8,CAL33_UPPER_AERODIGESTIVE_TRACT,0.694
9,CAL51_BREAST,0.595
10,CAL54_KIDNEY,0.502
11,CAL62_THYROID,0.321
12,CAL72_BONE,0.839
13,CAL78_BONE,0.486
14,CAL120_BREAST,0.497
15,CAL148_BREAST,1
16,CALU1_LUNG,0.901
17,CALU6_LUNG,0.928
18,CAMA1_BREAST,0.746
19,CAOV3_OVARY,0.648
20,CAPAN2_PANCREAS,1
21,CAS1_CENTRAL_NERVOUS_SYSTEM,0.665
22,CASKI_CERVIX,0.376
23,CBAGPN_BONE,0.79
24,CCFSTTG1_CENTRAL_NERVOUS_SYSTEM,0.992
25,CCK81_LARGE_INTESTINE,0.86

row,Test System,AUC of viability dose-response curve
1,CCLFPEDS0003T_SOFT_TISSUE,0.392
2,CCLP1_BILIARY_TRACT,0.45
3,CCSW1_BILIARY_TRACT,0.832
4,CFPAC1_PANCREAS,1
5,CH157MN_CENTRAL_NERVOUS_SYSTEM,0.899
6,CHAGOK1_LUNG,0.748
7,CHL1_SKIN,0.148
8,CHLA06ATRT_SOFT_TISSUE,1
9,CHLA10_BONE,0.97
10,CHLA15_AUTONOMIC_GANGLIA,0.551
11,CHLA57_BONE,0.647
12,CHLA200_CENTRAL_NERVOUS_SYSTEM,0.168
13,CI1_HAEMATOPOIETIC_AND_LYMPHOID_TISSUE,0.674
14,CJM_SKIN,0.415
15,CL11_LARGE_INTESTINE,0.326
16,CL34_LARGE_INTESTINE,0.812
17,CMLT1_HAEMATOPOIETIC_AND_LYMPHOID_TISSUE,0.666
18,COGAR359_SOFT_TISSUE,1
19,COGE352_BONE,1
20,COGN278_AUTONOMIC_GANGLIA,0.345
21,COLO320_LARGE_INTESTINE,1
22,COLO668_LUNG,0.615
23,COLO679_SKIN,0.3
24,COLO680N_OESOPHAGUS,0.653
25,COLO741_SKIN,0.559

row,Test System,AUC of viability dose-response curve
1,COLO783_SKIN,0.837
2,COLO792_SKIN,0.804
3,COLO800_SKIN,0.67
4,CORL23_LUNG,1
5,CORL88_LUNG,0.612
6,CORL105_LUNG,0.747
7,CORL279_LUNG,1
8,COV318_OVARY,0.899
9,COV362_OVARY,0.887
10,COV434_OVARY,0.556
11,COV644_OVARY,0.92
12,CW2_LARGE_INTESTINE,1
13,CW9019_SOFT_TISSUE,0.735
14,DANG_PANCREAS,1
15,DAOY_CENTRAL_NERVOUS_SYSTEM,0.958 ± 0.059
16,DBTRG05MG_CENTRAL_NERVOUS_SYSTEM,0.854
17,DEL_HAEMATOPOIETIC_AND_LYMPHOID_TISSUE,1
18,DETROIT562_UPPER_AERODIGESTIVE_TRACT,0.68
19,DKMG_CENTRAL_NERVOUS_SYSTEM,0.733
20,DL_SOFT_TISSUE,0.471
